# Assay results taken from patent publication US12195482B1 (Arcus Biosciences, Inc., priority 2022, dated 2025).
# Columns and labels:
# [1] = molecular target: T1, recombinant human MER (Homo sapiens, UniProt Q12866); assay: Biochemical potency, HTRF KinEASE-TK kinase assay; conditions: 1 nM MER, 700 μM ATP
# T1 construct: purchased Invitrogen
# T1 sequence (Q12866 21-999): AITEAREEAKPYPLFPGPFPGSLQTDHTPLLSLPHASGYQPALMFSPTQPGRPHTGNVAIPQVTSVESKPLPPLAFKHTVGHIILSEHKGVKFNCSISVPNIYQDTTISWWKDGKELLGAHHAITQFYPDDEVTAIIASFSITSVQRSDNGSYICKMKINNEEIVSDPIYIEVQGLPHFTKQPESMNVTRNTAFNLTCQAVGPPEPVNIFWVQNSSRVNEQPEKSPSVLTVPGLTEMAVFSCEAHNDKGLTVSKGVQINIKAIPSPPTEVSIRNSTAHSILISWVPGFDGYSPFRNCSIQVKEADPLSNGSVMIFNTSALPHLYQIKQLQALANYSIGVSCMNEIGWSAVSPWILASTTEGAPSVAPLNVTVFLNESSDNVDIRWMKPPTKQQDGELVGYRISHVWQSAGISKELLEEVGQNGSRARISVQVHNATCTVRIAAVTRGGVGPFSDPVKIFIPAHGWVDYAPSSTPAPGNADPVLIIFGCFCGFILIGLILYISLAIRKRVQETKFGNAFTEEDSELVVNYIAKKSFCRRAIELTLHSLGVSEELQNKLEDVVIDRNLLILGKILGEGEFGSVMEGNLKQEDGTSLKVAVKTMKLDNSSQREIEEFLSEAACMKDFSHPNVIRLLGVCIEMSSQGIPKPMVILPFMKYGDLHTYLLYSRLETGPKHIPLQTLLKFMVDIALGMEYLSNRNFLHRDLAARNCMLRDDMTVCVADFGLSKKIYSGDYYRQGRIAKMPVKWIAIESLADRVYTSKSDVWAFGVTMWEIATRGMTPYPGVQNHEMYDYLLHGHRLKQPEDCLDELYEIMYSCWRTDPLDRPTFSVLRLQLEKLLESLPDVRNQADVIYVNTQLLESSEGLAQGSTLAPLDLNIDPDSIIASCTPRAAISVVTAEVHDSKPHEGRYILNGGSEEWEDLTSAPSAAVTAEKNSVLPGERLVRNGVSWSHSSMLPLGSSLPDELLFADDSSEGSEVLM
# In short: (§1)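 HTRF 665/620 readout after a 2 h RT kinase reaction (final 700 μM ATP, 800 nM biotinylated TK substrate, 1% DMSO, HEPES pH 7.4 buffer) gave percent activity. Final enzyme was 5 nM for AXL, 1 nM for TYRO3 or MER, each preincubated 1 h with compound.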
# [2] = molecular target: T2, recombinant human TYRO3 (Homo sapiens, UniProt Q06418); assay: Biochemical potency, HTRF KinEASE-TK kinase assay; conditions: 1 nM TYRO3, 700 μM ATP
# T2 construct: purchased Invitrogen
# T2 sequence (Q06418 41-890): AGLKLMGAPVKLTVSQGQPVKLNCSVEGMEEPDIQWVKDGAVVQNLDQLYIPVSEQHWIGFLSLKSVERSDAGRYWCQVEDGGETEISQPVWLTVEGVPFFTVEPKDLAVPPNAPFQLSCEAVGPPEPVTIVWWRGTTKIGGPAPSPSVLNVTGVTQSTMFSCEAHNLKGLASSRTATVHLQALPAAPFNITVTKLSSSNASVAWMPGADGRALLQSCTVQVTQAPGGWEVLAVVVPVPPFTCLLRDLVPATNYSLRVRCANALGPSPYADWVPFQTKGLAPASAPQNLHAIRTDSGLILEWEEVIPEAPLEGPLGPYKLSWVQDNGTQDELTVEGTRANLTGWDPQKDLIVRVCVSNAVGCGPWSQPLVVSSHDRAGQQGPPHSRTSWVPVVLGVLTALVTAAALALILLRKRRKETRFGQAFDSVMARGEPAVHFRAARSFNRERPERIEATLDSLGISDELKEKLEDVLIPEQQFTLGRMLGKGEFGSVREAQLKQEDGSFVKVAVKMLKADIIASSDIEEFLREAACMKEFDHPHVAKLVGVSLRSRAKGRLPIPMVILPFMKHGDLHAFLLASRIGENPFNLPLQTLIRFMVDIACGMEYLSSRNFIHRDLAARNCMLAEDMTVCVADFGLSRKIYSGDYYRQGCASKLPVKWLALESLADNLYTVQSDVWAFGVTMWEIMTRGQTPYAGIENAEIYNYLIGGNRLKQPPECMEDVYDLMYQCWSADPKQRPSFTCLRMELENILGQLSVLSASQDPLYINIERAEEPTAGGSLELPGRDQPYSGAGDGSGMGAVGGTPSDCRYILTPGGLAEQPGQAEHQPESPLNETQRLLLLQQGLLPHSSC
# In short: as §1
SMILES,IC50 [1],IC50 [2]
"Cc1cncnc1-c1ccc(-c2c[nH]c3ncc(-c4ccc5c(c4)CC[C@@H](N4C6COCC4C6)CC5)cc23)cc1 [Example 47, 6-[(7S)-2-{3-[4-(5-Methylpyrimidin-4-yl)phenyl]-1H-pyrrolo[2,3-b]pyridin-5-yl}-6,7,8,9-tetrahydro-5H-benzo[7]annulen-7-yl]-3-oxa-6-azabicyclo[3.1.1]heptane]",< 100 nM,< 100 nM
"Clc1cc(-c2c[nH]c3ncc(-c4ccc5c(c4)CC[C@@H](N4C6COCC4C6)CC5)cc23)ccc1-c1ccccn1 [Example 44, 6-[(7S)-2-{3-[3-Chloro-4-(pyridin-2-yl)phenyl]-1H-pyrrolo[2,3-b]pyridin-5-yl}-6,7,8,9-tetrahydro-5H-benzo[7]annulen-7-yl]-3-oxa-6-azabicyclo[3.1.1]heptane]",100 to 1000 nM,100 to 1000 nM
"c1cc(-n2cc(-c3c[nH]c4ncc(-c5ccc6c(c5)CC[C@@H](N5C7COCC5C7)CC6)cc34)cn2)ccn1 [Example 45, 6-[(7S)-2-{3-[1-(Pyridin-4-yl)-1H-pyrazol-4-yl]-1H-pyrrolo[2,3-b]pyridin-5-yl}-6,7,8,9-tetrahydro-5H-benzo[7]annulen-7-yl]-3-oxa-6-azabicyclo[3.1.1]heptane]",> 1000 nM,> 1000 nM
"c1cc(-c2ccc(-c3c[nH]c4ncc(-c5ccc6c(c5)CC[C@@H](N5C7COCC5C7)CC6)cc34)cc2)ccn1 [Example 41, 6-[(7S)-2-{3-[4-(Pyridin-4-yl)phenyl]-1H-pyrrolo[2,3-b]pyridin-5-yl}-6,7,8,9-tetrahydro-5H-benzo[7]annulen-7-yl]-3-oxa-6-azabicyclo[3.1.1]heptane]",100 to 1000 nM,> 1000 nM
"Clc1cccnc1-c1ccc(-c2c[nH]c3ncc(-c4ccc5c(c4)CC[C@@H](N4C6COCC4C6)CC5)cc23)cc1 [Example 43, 6-[(7S)-2-{3-[4-(3-Chloropyridin-2-yl)phenyl]-1H-pyrrolo[2,3-b]pyridin-5-yl}-6,7,8,9-tetrahydro-5H-benzo[7]annulen-7-yl]-3-oxa-6-azabicyclo[3.1.1]heptane]",100 to 1000 nM,100 to 1000 nM
"Cc1nncn1-c1ccc(-c2n[nH]c3ncc(-c4ccc5c(c4)CC[C@@H](N4C6COCC4C6)CC5)cc23)cc1 [Example 11, 6-[(7S)-2-{3-[4-(3-Methyl-4H-1,2,4-triazol-4-yl)phenyl]-1H-pyrazolo[3,4-b]pyridin-5-yl}-6,7,8,9-tetrahydro-5H-benzo[7]annulen-7-yl]-3-oxa-6-azabicyclo[3.1.1]heptane]",> 1000 nM,> 1000 nM
"Cc1nccnc1-c1ccc(-c2c[nH]c3ncc(-c4ccc5c(c4)CC[C@@H](N4C6COCC4C6)CC5)cc23)cc1 [Example 48, 6-[(7S)-2-{3-[4-(3-Methylpyrazin-2-yl)phenyl]-1H-pyrrolo[2,3-b]pyridin-5-yl}-6,7,8,9-tetrahydro-5H-benzo[7]annulen-7-yl]-3-oxa-6-azabicyclo[3.1.1]heptane]",100 to 1000 nM,100 to 1000 nM
"Cc1cnc(C)c(-c2ccc(-c3c[nH]c4ncc(-c5ccc6c(c5)CC[C@@H](N5C7COCC5C7)CC6)cc34)cc2)n1 [Example 53, 6-[(7S)-2-{3-[4-(3,6-Dimethylpyrazin-2-yl)phenyl]-1H-pyrrolo[2,3-b]pyridin-5-yl}-6,7,8,9-tetrahydro-5H-benzo[7]annulen-7-yl]-3-oxa-6-azabicyclo[3.1.1]heptane]",100 to 1000 nM,100 to 1000 nM

# Second part, the compound after the results:
IC50 [1],IC50 [2],SMILES
100 to 1000 nM,100 to 1000 nM,"COc1cc(-c2c[nH]c3ncc(-c4ccc5c(c4)CC[C@@H](N4C6COCC4C6)CC5)cc23)ccc1-c1ccccn1 [Example 161, 6-[(7S)-2-{3-[3-Methoxy-4-(pyridin-2-yl)phenyl]-1H-pyrrolo[2,3-b]pyridin-5-yl}-6,7,8,9-tetrahydro-5H-benzo[7]annulen-7-yl]-3-oxa-6-azabicyclo[3.1.1]heptane]"
100 to 1000 nM,100 to 1000 nM,"CC(C)(C#N)c1cccnc1-c1ccc(-c2n[nH]c3ncc(-c4ccc5c(c4)CC[C@@H](N4C6COCC4C6)CC5)cc23)cc1 [Example 85, 2-Methyl-2-[2-[4-[5-[(7S)-7-(3-oxa-6-azabicyclo[3.1.1]heptan-6-yl)-6,7,8,9-tetrahydro-5H-benzo[7]annulen-3-yl]-1H-pyrazolo[3,4-b]pyridine-3-yl]phenyl]pyridine-3-yl]propanenitrile]"
100 to 1000 nM,100 to 1000 nM,"COc1ccnc(-c2ccc(-c3n[nH]c4ncc(-c5ccc6c(c5)CC[C@@H](N5C7COCC5C7)CC6)cc34)cc2)c1C [Example 87, 6-[(7S)-3-[3-[4-(4-Methoxy-3-methylpyridin-2-yl)phenyl]-1H-pyrazolo[3,4-b]pyridin-5-yl]-6,7,8,9-tetrahydro-5H-benzo[7]annulen-7-yl]-3-oxa-6-azabicyclo[3.1.1]heptane]"
100 to 1000 nM,100 to 1000 nM,"FC(F)c1cccnc1-c1ccc(-c2n[nH]c3ncc(-c4ccc5c(c4)CC[C@@H](N4C6COCC4C6)CC5)cc23)cc1 [Example 89, 6-[(7S)-3-[3-[4-[3-(Difluoromethyl)pyridin-2-yl]phenyl]-1H-pyrazolo[3,4-b]pyridin-5-yl]-6,7,8,9-tetrahydro-5H-benzo[7]annulen-7-yl]-3-oxa-6-azabicyclo[3.1.1]heptane]"
100 to 1000 nM,100 to 1000 nM,"COc1cc(-c2n[nH]c3ncc(-c4ccc5c(c4)CC[C@@H](N4C6COCC4C6)CC5)cc23)ccc1-c1ccccn1 [Example 160, 6-[(7S)-2-{3-[3-Methoxy-4-(pyridin-2-yl)phenyl]-2H-pyrazolo[3,4-b]pyridin-5-yl}-6,7,8,9-tetrahydro-5H-benzo[7]annulen-7-yl]-3-oxa-6-azabicyclo[3.1.1]heptane]"
100 to 1000 nM,100 to 1000 nM,"Cc1ccnnc1-c1ccc(-c2n[nH]c3ncc(-c4ccc5c(c4)CC[C@@H](N4C6COCC4C6)CC5)cc23)nc1 [Example 56, 6-[(7S)-2-{3-[5-(4-Methylpyridazin-3-yl)pyridin-2-yl]-1H-pyrazolo[3,4-b]pyridin-5-yl}-6,7,8,9-tetrahydro-5H-benzo[7]annulen-7-yl]-3-oxa-6-azabicyclo[3.1.1]heptane]"
100 to 1000 nM,< 100 nM,"CN(C)C(=O)c1ccccc1-c1ccc(-c2c[nH]c3ncc(-c4ccc5c(c4)CC[C@@H](N4C6COCC4C6)CC5)cc23)cc1 [Example 92, N,N-Dimethyl-4′-{5-[(7S)-7-{3-oxa-6-azabicyclo[3.1.1]heptan-6-yl}-6,7,8,9-tetrahydro-5H-benzo[7]annulen-2-yl]-1H-pyrrolo[2,3-b]pyridin-3-yl}-[1,1′-biphenyl]-2-carboxamide]"
100 to 1000 nM,100 to 1000 nM,"Cc1cnc(C)c(-c2ccc(-c3c[nH]c4ncc(-c5ccc6c(c5)CC[C@@](C)(N5CCC[C@H]5C)CC6)cc34)cc2)n1 [Example 58, 2,5-Dimethyl-3-(4-{5-[(7S)-7-methyl-7-[(2R)-2-methylpyrrolidin-1-yl]-6,7,8,9-tetrahydro-5H-benzo[7]annulen-2-yl]-1H-pyrrolo[2,3-b]pyridin-3-yl}phenyl)pyrazine]"
